Test results taken from ChEMBL document CHEMBL5226341, “Discovery of a Potent FLT3 Inhibitor (LT-850-166) with the Capacity of Overcoming a Variety of FLT3 Mutations” (J Med Chem, 2021).
Calls of active or inactive are those of the source. The calls are words filed in the database; no cut-off is given here.

What was measured:
[1] = target: Receptor-type tyrosine-protein kinase FLT3 (Homo sapiens) (UniProt P36888); assay: Inhibition of FLT3 in human MV4-11 cells assessed as inhibition of FLT3 phosphorylation at Tyr589/591 residue incubated for 4 hrs by western blot analysis; assay type: cell-based; conditions: dose 0.1-100 nM
Chain of Receptor-type tyrosine-protein kinase FLT3 (Homo sapiens) (P36888 whole entry): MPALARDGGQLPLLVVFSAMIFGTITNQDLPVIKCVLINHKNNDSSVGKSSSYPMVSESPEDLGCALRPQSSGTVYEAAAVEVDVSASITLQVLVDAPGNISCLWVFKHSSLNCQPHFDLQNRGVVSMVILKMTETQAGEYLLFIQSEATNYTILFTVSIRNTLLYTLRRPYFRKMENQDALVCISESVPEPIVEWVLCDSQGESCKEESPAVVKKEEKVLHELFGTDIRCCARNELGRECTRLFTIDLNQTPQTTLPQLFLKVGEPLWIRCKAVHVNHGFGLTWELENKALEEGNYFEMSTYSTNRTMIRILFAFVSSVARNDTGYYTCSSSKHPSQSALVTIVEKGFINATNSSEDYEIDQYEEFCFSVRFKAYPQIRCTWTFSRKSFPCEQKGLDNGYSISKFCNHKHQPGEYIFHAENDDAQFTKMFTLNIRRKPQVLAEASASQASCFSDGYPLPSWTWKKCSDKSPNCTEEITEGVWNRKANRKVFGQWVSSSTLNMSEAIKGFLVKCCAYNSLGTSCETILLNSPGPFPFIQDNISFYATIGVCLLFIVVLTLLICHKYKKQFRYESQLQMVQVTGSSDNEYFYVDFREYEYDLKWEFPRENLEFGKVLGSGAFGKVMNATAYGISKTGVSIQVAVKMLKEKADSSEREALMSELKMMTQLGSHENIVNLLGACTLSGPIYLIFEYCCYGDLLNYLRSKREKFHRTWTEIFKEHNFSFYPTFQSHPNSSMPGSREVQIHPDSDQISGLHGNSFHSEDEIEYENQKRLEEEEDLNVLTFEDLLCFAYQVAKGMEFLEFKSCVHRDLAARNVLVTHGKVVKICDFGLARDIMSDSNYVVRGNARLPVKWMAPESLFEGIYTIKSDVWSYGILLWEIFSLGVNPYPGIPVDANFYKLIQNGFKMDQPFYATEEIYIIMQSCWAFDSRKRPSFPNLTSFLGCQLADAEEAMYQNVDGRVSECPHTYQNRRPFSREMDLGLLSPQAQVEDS

BaF3 = assay: Antiproliferative activity against mouse BaF3 cells harboring FLT3-ITD-F691L mutant assessed as residual cell viability at 50 nM incubated for 72 hrs by CellTiterGlo luminescent assay; assay type: functional
MV4-11 [2] = assay: Antiproliferative activity against human MV4-11 cells assessed as inhibition of cell growth incubated for 72 hrs by CellTiterGlo luminescent assay; assay type: functional, cell-based; conditions: MV4-11, 72 h
[3] = Antiproliferative activity against mouse BaF3 cells assessed as reduction in cell viability measured after 72 hrs by CellTiterGlo luminescent assay; assay type: toxicity, cell-based
[4] = Ratio of IC50 for antiproliferative activity against mouse BaF3 cells harboring FLT3-ITD-Y842H mutant to IC50 for antiproliferative activity against mouse BaF3 cells harboring FLT3-ITD mutant; assay type: functional
HCD-57 [5] = assay: Antiproliferative activity against mouse HCD-57 cells harboring FLT3-ITD mutant assessed as reduction in cell viability measured after 72 hrs by CellTiterGlo luminescent assay; assay type: functional, cell-based
MDA-MB-231 = assay: Antiproliferative activity against human MDA-MB-231 cells assessed as reduction in cell viability measured after 72 hrs by CellTiterGlo luminescent assay; assay type: functional, cell-based; conditions: MDA-MB-231, 72 h
MKN-45 = assay: Antiproliferative activity against human MKN-45 cells assessed as reduction in cell viability measured after 72 hrs by CellTiterGlo luminescent assay; assay type: functional, cell-based; conditions: MKN-45, 72 h
NB-4 = assay: Antiproliferative activity against human NB-4 cells assessed as reduction in cell viability measured after 72 hrs by CellTiterGlo luminescent assay; assay type: functional, cell-based; conditions: NB-4, 72 h
THP-1 = assay: Antiproliferative activity against human THP-1 cells assessed as reduction in cell viability measured after 72 hrs by CellTiterGlo luminescent assay; assay type: functional, cell-based; conditions: THP-1, 72 h
[6] = target: Receptor-type tyrosine-protein kinase FLT3 (Homo sapiens) (UniProt P36888); assay: Inhibition of FLT3 in human MV4-11 cells assessed as inhibition of ERK phosphorylation at Thr202/Tyr204 residue incubated for 4 hrs by western blot analysis; assay type: cell-based; conditions: dose 0.1-100 nM
[7] = target: Receptor-type tyrosine-protein kinase FLT3 (Homo sapiens) (UniProt P36888); assay: Inhibition of FLT3 in human MV4-11 cells assessed as inhibition of FLT3 phosphorylation at Tyr589/591 residue at 10 nM incubated for 4 hrs by western blot analysis; assay type: cell-based
[8] = tested on: Receptor-type tyrosine-protein kinase FLT3 (Homo sapiens), P36888 [UNDEFINED MUTATION]; assay type: cell-based; conditions: BaF3, dose 0.1-100 nM, time 4.0 hrs
Chain of Receptor-type tyrosine-protein kinase FLT3 (Homo sapiens), P36888 [UNDEFINED MUTATION] (P36888 whole entry, looked up, stated change not applied): as the sequence (P36888 whole entry) above

[9] = tested on: Receptor-type tyrosine-protein kinase FLT3 (Homo sapiens), P36888 [UNDEFINED MUTATION]; assay type: cell-based; conditions: BaF3, dose 0.1-100 nM, time 4.0 hrs; remark: listed apart in the source
[10] = tested on: Receptor-type tyrosine-protein kinase FLT3 (Homo sapiens), P36888 [UNDEFINED MUTATION]; assay: Inhibition of FLT3-ITD-F691L mutant (unknown origin) transformed in mouse BaF3 cells assessed as inhibition of FLT3 phosphorylation at Tyr589/591 residue incubated for 4 hrs by western blot analysis; assay type: cell-based; conditions: dose 0.1-100 nM
[11] = tested on: Receptor-type tyrosine-protein kinase FLT3 (Homo sapiens), P36888 [UNDEFINED MUTATION]; assay: Inhibition of FLT3-ITD-F691L mutant (unknown origin) transformed in mouse BaF3 cells assessed as inhibition of STAT5 phosphorylation at Tyr694 residue incubated for 4 hrs by western blot analysis; assay type: cell-based; conditions: dose 0.1-100 nM
MV4-11 [12] = assay: Induction of apoptosis in human MV4-11 cells assessed as viable cells at 10 nM incubated for 24 hrs by AnnexinV-FITC/PI staining based flow cytometry (reference value: 92.3%); assay type: functional; conditions: read-out: Activity
MV4-11 [13] = assay: Induction of apoptosis in human MV4-11 cells assessed as necrotic cells at 10 nM incubated for 24 hrs by AnnexinV-FITC/PI staining based flow cytometry (reference value: 0.45%); assay type: functional
MV4-11 [14] = assay: Induction of apoptosis in human MV4-11 cells assessed as necrotic cells at 100 nM incubated for 24 hrs by AnnexinV-FITC/PI staining based flow cytometry (reference value: 0.45%); assay type: functional
[15] = Induction of apoptosis in mouse HCD-57 cells at 100 nM incubated for 24 hrs by AnnexinV-FITC/PI staining based flow cytometry; assay type: toxicity, cell-based; conditions: hcd-57, 24 h, 0.1 µM
MV4-11 [16] = assay: Induction of cell cycle arrest in human MV4-11 cells assessed as proportion of cells at G1 phase at 100 nM incubated for 24 hrs by PI staining based flow cytometry (reference value: 56%); assay type: functional
HCD-57 [17] = assay: Induction of cell cycle arrest in mouse HCD-57 cells harboring FLT3-ITD mutant at 100 nM incubated for 24 hrs by PI staining based flow cytometry; assay type: functional
HCD-57 [18] = assay: Induction of cell cycle arrest in mouse HCD-57 cells harboring FLT3-D835Y mutant at 100 nM incubated for 24 hrs by PI staining based flow cytometry; assay type: functional
[19] = Induction of cell cycle arrest in mouse HCD-57 cells at 100 nM incubated for 24 hrs by PI staining based flow cytometry; assay type: toxicity; conditions: hcd-57, 24 h, 0.1 µM
[20] = Half-life in Sprague-Dawley rat at 1 mg/kg, iv measured for 24 hrs by LC-MS/MS analysis; assay type: ADME, organism-based; conditions: in vivo
[21] = Initial drug concentration in Sprague-Dawley at 1 mg/kg, iv by LC-MS/MS analysis; assay type: ADME, organism-based; conditions: rat, in vivo
MV4-11 [22] = assay: Antitumor activity against human MV4-11 cells xenografted in BALB/c mouse assessed as tumor growth inhibition at 15 mg/kg, iv QD for 21 days by vernier caliper analysis; assay type: functional; conditions: MV4-11, 504 h, time 21 day, read-out: TGI
MV4-11 [23] = assay: Antitumor activity against human MV4-11 cells xenografted in BALB/c mouse assessed as inhibition rate of tumor weight at 15 mg/kg, iv QD for 21 days by vernier caliper analysis; assay type: functional; conditions: MV4-11, 504 h, time 21 day
MV4-11 [24] = assay: Antitumor activity against human MV4-11 cells xenografted in BALB/c mouse assessed as inhibition rate of tumor weight at 15 mg/kg, iv BID for 21 days by vernier caliper analysis; assay type: functional; conditions: MV4-11, 504 h, time 21 day
[25] = Toxicity in BALB/c mouse xenografted with human MV4-11 cells assessed as lymphocyte count at 15 mg/kg, iv for 21 days; assay type: organism-based; conditions: in vivo, 504 h, time 21 day
[26] = Toxicity in BALB/c mouse xenografted with human MV4-11 cells assessed as neutrophil count at 15 mg/kg, iv for 21 days; assay type: organism-based; conditions: in vivo, 504 h, time 21 day
[27] = Toxicity in BALB/c mouse xenografted with human MV4-11 cells assessed as granulocyte count at 15 mg/kg, iv for 21 days; assay type: organism-based; conditions: in vivo, 504 h, time 21 day
[28] = Toxicity in BALB/c mouse xenografted with human MV4-11 cells assessed as morphological changes in kidney at 15 mg/kg, iv for 21 days by H and E staining based analysis; assay type: organism-based; conditions: in vivo, 504 h, time 21 day
[29] = Toxicity in BALB/c mouse xenografted with human MV4-11 cells assessed as morphological changes in spleen at 15 mg/kg, iv for 21 days by H and E staining based analysis; assay type: organism-based; conditions: in vivo, 504 h, time 21 day
[30] = Toxicity in BALB/c mouse xenografted with human MV4-11 cells assessed as morphological changes in lung at 15 mg/kg, iv for 21 days by H and E staining based analysis; assay type: organism-based; conditions: in vivo, 504 h, time 21 day
[31] = Toxicity in ICR mouse assessed as change in body weight at 100 mg/kg, iv administered as single dose and measured for 14 days; assay type: organism-based; conditions: in vivo, 336 h, time 14 day

CCN1CCN(c2ccc(C(=O)Nc3cc(-c4ccc5ncn(Cc6c(Cl)cccc6Cl)c5c4)[nH]n3)cc2)CC1
inhibition [1]: Dose-Dependent Effect | Activity (BaF3): 2.54% | IC50 (MV4-11 [2]): 0.00293 µM | IC50 at 72 h [3]: 4.09 µM | Ratio IC50 [4]: <0.2 | Activity (HCD-57 [5]): Active | IC50 (MDA-MB-231): 3.85 µM | IC50 (MKN-45): 4.03 µM | IC50 (NB-4): > 5 µM | IC50 (THP-1): > 5 µM | inhibition [6]: Dose-Dependent Effect | inhibition [7]: 100% | inhibition [8]: Dose-Dependent Effect | inhibition [9]: Dose-Dependent Effect | inhibition [10]: Dose-Dependent Effect | inhibition [11]: Dose-Dependent Effect | viability at 0.01 µM (MV4-11 [12]): 67.9% | Activity (MV4-11 [13]): 1.3% | Activity (MV4-11 [14]): 0.61% | Activity [15]: Non-Toxic | Activity (MV4-11 [16]): 90.3% | Activity (HCD-57 [17]): Active | Activity (HCD-57 [18]): Active | Activity [19]: Non-Toxic | half-life [20]: 2.25 h | C0 [21]: 0.368 µg/mL | inhibition in vivo at 15 mg/kg (MV4-11 [22]): 99.5% | inhibition in vivo at 15 mg/kg (MV4-11 [23]): 82.7% | inhibition in vivo at 15 mg/kg (MV4-11 [24]): 85.2% | Activity [25]: Non-Toxic | Activity [26]: Non-Toxic | Activity [27]: Non-Toxic | Activity [28]: Non-Toxic | Activity [29]: Non-Toxic | Activity [30]: Non-Toxic | Activity [31]: Non-Toxic
